Results from US20030099960A1, “Compositions and methods for optimizing UGT2B7 substrate dosings and for predicting UGT2B7 substrate toxicity” (The University of Chicago, priority 2001, published 2003).

Assays:
[1] = target: T1, human UGT2B15 (Homo sapiens, UniProt P54855); experiment: Epirubicin glucuronidation in microsomes expressing UGT2B15; conditions: Nd = not detectable
T1 sequence (P54855 24-530): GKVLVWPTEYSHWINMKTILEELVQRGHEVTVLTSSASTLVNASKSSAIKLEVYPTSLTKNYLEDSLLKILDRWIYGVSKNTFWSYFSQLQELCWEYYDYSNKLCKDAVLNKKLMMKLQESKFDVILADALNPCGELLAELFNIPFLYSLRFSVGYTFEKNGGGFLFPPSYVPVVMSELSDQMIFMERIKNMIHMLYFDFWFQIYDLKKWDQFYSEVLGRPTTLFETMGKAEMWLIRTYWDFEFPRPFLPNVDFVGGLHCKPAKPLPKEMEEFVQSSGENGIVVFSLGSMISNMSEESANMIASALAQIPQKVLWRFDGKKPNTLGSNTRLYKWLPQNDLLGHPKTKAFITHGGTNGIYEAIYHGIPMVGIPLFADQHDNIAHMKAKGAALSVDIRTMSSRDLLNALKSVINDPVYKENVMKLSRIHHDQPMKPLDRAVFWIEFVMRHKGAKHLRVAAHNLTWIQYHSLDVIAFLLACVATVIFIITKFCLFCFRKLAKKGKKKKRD
From the text: (§1) Microsomes from human lymphoblasts and insect cells (BTI-TN-5B1-4) both transfected with a vector containing human UGT1A1, UGT1A3, UGT1A4, UGT1A6, UGT1A9 and UGT2B15 complementary DNA (cDNA) and their negative control (microsomes from cells infected with wild-type vector) were obtained from Gentest Corp. (Woburn, Mass.). Microsomes from insect cells (SF-9) infected with a baculovirus containing human cDNA for UGT2B7 and their negative control were purchased from PanVera (Madison, Wis.).
(§2) For this purpose, dried samples were reconstituted with 0.2 ml of sodium phosphate buffer (0.1 M, pH 6.8) containing 1000 U of β-glucuronidase (type VII, from E. coli) and incubated overnight at 37° C. Reference samples containing no enzyme were treated identically.
(§3) The mobile phase consisted of 30% acetonitrile and 70% 50 mM sodium dihydrogen phosphate (pH adjusted to 4 with 8.5% ortho-phosphoric acid).

[2] = target: T2, human UGT1A1 (Homo sapiens, UniProt P22309); experiment: Epirubicin glucuronidation in microsomes expressing UGT1A1; conditions: Nd = not detectable
T2 sequence (P22309 26-533): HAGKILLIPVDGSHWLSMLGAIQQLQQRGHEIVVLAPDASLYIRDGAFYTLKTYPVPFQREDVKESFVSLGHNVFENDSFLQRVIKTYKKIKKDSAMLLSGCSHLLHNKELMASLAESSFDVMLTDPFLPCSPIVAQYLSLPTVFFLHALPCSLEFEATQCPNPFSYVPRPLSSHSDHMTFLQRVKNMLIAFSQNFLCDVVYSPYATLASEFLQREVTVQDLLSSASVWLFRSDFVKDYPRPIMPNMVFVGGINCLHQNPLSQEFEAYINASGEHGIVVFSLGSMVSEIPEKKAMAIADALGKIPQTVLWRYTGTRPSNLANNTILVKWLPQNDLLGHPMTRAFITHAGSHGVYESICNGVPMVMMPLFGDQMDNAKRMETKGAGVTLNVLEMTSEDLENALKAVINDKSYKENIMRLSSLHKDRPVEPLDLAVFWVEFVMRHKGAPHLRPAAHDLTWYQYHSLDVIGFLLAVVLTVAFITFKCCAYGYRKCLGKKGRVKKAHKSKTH
From the text: as §1, §2, §3

[3] = target: T3, human UGT1A3 (Homo sapiens, UniProt P35503); experiment: Epirubicin glucuronidation in microsomes expressing UGT1A3; conditions: Nd = not detectable
T3 sequence (P35503 29-534): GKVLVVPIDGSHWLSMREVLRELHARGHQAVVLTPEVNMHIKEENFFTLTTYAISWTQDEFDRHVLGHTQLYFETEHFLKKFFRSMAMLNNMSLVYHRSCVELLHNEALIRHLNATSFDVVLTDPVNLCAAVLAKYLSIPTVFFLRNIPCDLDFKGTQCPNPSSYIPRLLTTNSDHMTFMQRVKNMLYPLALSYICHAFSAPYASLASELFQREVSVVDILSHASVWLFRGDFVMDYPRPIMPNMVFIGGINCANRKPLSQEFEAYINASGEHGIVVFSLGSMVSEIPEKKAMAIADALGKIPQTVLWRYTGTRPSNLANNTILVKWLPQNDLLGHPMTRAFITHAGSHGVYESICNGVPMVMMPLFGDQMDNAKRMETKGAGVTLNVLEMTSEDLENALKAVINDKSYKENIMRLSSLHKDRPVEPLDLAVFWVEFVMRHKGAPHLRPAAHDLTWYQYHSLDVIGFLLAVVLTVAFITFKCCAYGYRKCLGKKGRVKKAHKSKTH
From the text: as §1, §2, §3

[4] = target: T4, human UGT1A4 (Homo sapiens, UniProt P22310); experiment: Epirubicin glucuronidation in microsomes expressing UGT1A4; conditions: Nd = not detectable
T4 sequence (P22310 29-534): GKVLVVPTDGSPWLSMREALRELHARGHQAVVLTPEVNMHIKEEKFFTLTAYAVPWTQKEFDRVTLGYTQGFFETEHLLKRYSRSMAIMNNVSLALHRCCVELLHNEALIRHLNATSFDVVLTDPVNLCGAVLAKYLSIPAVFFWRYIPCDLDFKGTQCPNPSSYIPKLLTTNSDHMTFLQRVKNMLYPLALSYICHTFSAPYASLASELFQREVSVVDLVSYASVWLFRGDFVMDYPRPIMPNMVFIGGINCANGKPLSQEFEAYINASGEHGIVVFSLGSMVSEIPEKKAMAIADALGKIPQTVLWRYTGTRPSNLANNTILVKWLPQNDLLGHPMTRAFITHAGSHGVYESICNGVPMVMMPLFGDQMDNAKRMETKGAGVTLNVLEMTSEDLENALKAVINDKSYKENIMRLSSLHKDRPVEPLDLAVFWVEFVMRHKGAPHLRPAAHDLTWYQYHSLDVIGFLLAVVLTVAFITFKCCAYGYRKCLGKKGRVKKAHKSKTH
From the text: as §1, §2, §3

[5] = target: T5, human UGT1A6 (Homo sapiens, UniProt P19224); experiment: Epirubicin glucuronidation in microsomes expressing UGT1A6; conditions: Nd = not detectable
T5 sequence (P19224 27-532): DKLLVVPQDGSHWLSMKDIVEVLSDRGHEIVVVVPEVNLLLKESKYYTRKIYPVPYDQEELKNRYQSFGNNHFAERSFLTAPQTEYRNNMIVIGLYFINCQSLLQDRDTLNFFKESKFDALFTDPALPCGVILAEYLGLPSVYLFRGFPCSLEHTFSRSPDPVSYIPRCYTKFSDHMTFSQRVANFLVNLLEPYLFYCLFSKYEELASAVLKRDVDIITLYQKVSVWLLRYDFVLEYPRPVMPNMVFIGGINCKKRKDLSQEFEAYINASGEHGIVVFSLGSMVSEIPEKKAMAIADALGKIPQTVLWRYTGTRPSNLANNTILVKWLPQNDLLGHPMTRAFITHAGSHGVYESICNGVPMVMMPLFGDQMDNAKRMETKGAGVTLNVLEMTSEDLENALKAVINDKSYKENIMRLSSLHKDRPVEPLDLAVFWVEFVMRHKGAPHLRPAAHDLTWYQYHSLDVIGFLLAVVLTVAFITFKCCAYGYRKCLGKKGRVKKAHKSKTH
From the text: as §1, §2, §3

[6] = target: T6, human UGT1A9 (Homo sapiens, UniProt O60656); experiment: Epirubicin glucuronidation in microsomes expressing UGT1A9; conditions: Nd = not detectable
T6 sequence (O60656 26-530): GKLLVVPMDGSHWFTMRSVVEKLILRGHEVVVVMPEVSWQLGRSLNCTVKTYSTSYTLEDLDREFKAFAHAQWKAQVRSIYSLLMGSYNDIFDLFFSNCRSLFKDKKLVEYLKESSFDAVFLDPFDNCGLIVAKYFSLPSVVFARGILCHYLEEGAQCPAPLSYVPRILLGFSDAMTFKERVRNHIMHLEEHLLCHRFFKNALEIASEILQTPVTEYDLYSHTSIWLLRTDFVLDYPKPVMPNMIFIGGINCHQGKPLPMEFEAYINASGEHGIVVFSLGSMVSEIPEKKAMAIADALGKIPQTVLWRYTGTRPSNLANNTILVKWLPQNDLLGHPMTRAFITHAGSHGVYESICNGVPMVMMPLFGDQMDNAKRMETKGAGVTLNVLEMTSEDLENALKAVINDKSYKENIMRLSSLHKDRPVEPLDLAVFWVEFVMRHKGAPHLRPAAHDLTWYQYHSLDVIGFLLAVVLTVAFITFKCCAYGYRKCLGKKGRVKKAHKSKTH
From the text: as §1, §2, §3

[7] = cited from earlier work

Structure (SMILES): COc1cccc2c1C(=O)c1c(O)c3c(c(O)c1C2=O)C[C@@](O)(C(=O)CO)C[C@@H]3O[C@H]1C[C@H](N)[C@@H](O)[C@H](C)O1 [Epirubicin, 4′-epi-doxorubicin]
- Formation rate of epirubicin glucuronide [1]: No epirubicin glucuronidating activity
- Formation rate of epirubicin glucuronide [2]: No epirubicin glucuronidating activity
- Formation rate of epirubicin glucuronide [3]: No epirubicin glucuronidating activity
- Formation rate of epirubicin glucuronide [4]: No epirubicin glucuronidating activity
- Formation rate of epirubicin glucuronide [5]: No epirubicin glucuronidating activity
- Formation rate of epirubicin glucuronide [6]: No epirubicin glucuronidating activity
- Median half-life, first phase ([7]; 3-compartment model): about 3.2 minutes
- Median half-life, second phase ([7]; 3-compartment model): ~1.2 h
- Median half-life, third phase ([7]; 3-compartment model): ~32 h
- Fraction excreted in the urine ([7]; elimination primarily biliary): less than 15%
- Total plasma clearance ([7]; human, in vivo): about 46 L/h/m^2
